# Data reported in patent US5070210A, “Novel ketenimines as intermediates for insecticides” (ICI Americas Inc., priority 1990, dated 1991).
# Experiments:
# Assay type in all cases: in vivo
# [1] = tested on: Cabbage Looper [Trichoplusia ni (Hubner)]; assay: Cabbage looper insecticidal test; settings: second-instar larvae, percent in solution; 3-5 days
# Experimental: (§1) The compounds in Tables 1 and 2 above were tested for insecticidal activity using the following testing procedures. LC50 values, based on the results of these tests and calculated according to dosage-mortality curves, are expressed in Table 3.
# Cabbage Looper [Trichoplusia ni (Hubner)]:
# Test compounds were diluted in a 50-50 acetone-water solution. Cotyledons of hyzini squash (Calabacita abobrinha), approximately 1×1.5 inches, were immersed in the test solutions for 2-3 seconds and placed on a wire screen to dry. The dried leaves were placed in petri dishes containing a moistened piece of filter paper and infested with 5 second-instar cabbage looper larvae. The dishes were placed in a high humidity chamber. Mortality of the larvae was recorded 3-5 days later. Test concentrations ranged from 0.1% downward. The LC-50 value is expressed below in Table 3 under the heading "CL" in terms of percent of the test compound in solution.
# [2] = tested on: Housefly [Musca domestica]; assay: Housefly insecticidal test; settings: μg per 25 female flies; mortality after 48 hours
# Experimental: as §1
# Housefly [Musca domestica]:
# Test compounds were diluted in acetone and aliquots pipetted onto the bottom of aluminum dishes. To ensure even spreading of the chemical on the bottom of the dishes, 1 ml of acetone containing 0.01% peanut oil was also added to each dish. After all solvents had evaporated, the dishes were placed in circular cardboard cages containing 25 female houseflies, 1-2 days old. The cages were covered on the bottom with cellophane and on the top with tulle netting, and each contained a sugar-water saturated cotton plug for maintenance of the flies. Mortality was recorded after 48 hours. Test levels ranged from 100 μg/25 female houseflies downward. The LC-50 value is expressed below in Table 3 under the heading "HF", in terms of μg of the test compound per 25 female flies.
# [3] = tested on: Tobacco Budworm [Heliothis virescens (Fabricius)] eggs; assay: Tobacco budworm egg test; settings: 2-day old eggs, percent in solution
# Experimental: as §1
# Tobacco Budworm [Heliothis virescens (Fabricius)]:
# (b). Eggs: Paper towel patches of 2-day old eggs of the tobacco budworm were dipped in acetone solutions of the test compound and placed in petri dishes containing a portion of larval rearing medium. Treated eggs were maintained at 78° F. and mortality was recorded after all control eggs had hatched and the young larvae were feeding on the media. Test concentrations ranged from 0.1% downward. The LC-50 value is expressed below in Table 3 under the heading "TBW-E" in terms of percent of the test compound in the solution.
compound,measurement,setting,value
CC(C)(C)C(=Nc1cccc(Cl)c1)OCc1cccc(Oc2ccccc2)c1 [Compound 12],"LC50, CL",[1],0.008%
same,"LC50, HF",[2],> 100 µg
same,"LC50, TBW, E (TBW-E)",[3],> 0.1%
CC1CC1C(=Nc1ccc(Cl)cc1)OCc1cccc(Oc2ccccc2)c1 (stereo not shown) [Compound 15],"LC50, CL",[1],0.025%
same,"LC50, HF",[2],> 100 µg
same,"LC50, TBW, E (TBW-E)",[3],> 0.1%
CC(C)C(=Nc1cc(Cl)c(Cl)cc1Cl)OCc1cccc(Oc2ccccc2)c1 [Compound 18],"LC50, CL",[1],0.008%
same,"LC50, HF",[2],> 100 µg
same,"LC50, TBW, E (TBW-E)",[3],0.09%
CC(C)C(=Nc1c(Cl)cc(Cl)cc1Cl)OCc1cccc(Oc2ccccc2)c1 [Compound 19],"LC50, CL",[1],< 0.1%
same,"LC50, HF",[2],> 100 µg
same,"LC50, TBW, E (TBW-E)",[3],> 0.1%
COC(C)C(=Nc1ccc(Cl)cc1)OCc1cccc(Oc2ccccc2)c1 (stereo not shown) [Compound 22],"LC50, CL",[1],0.004%
same,"LC50, HF",[2],15 µg
same,"LC50, TBW, E (TBW-E)",[3],0.08%
Clc1cccc(N=C(OCc2cccc(Oc3ccccc3)c2)C2CC2)c1 [Compound 24],"LC50, CL",[1],0.005%
same,"LC50, HF",[2],25 µg
same,"LC50, TBW, E (TBW-E)",[3],0.1%
CCC(C)C(=Nc1ccc(Cl)cc1)OCc1cccc(Oc2ccccc2)c1 (stereo not shown) [Compound 26],"LC50, CL",[1],0.007%
same,"LC50, HF",[2],> 100 µg
same,"LC50, TBW, E (TBW-E)",[3],> 0.1%
CC(Cl)C(=Nc1ccc(Cl)c(Cl)c1)OCc1cccc(Oc2ccccc2)c1 (stereo not shown) [Compound 27],"LC50, CL",[1],0.04%
same,"LC50, HF",[2],> 100 µg
same,"LC50, TBW, E (TBW-E)",[3],> 0.1%
CCC(=Nc1cccc(Cl)c1Cl)OCc1cccc(Oc2ccccc2)c1 [Compound 28],"LC50, CL",[1],0.009%
same,"LC50, HF",[2],> 100 µg
same,"LC50, TBW, E (TBW-E)",[3],> 0.1%
CCC(=Nc1ccc(Cl)c(Cl)c1)OCc1cccc(Oc2ccccc2)c1 [Compound 36],"LC50, CL",[1],0.024%
same,"LC50, HF",[2],20 µg
same,"LC50, TBW, E (TBW-E)",[3],> 0.1%
CCCC(=Nc1ccc(Cl)c(Cl)c1)OCc1cccc(Oc2ccccc2)c1 [Compound 38],"LC50, CL",[1],0.006%
same,"LC50, HF",[2],33 µg
same,"LC50, TBW, E (TBW-E)",[3],0.05%
CCC(C)C(=Nc1ccc(Cl)c(Cl)c1)OCc1cccc(Oc2ccccc2)c1 (stereo not shown) [Compound 39],"LC50, CL",[1],0.0023%
same,"LC50, HF",[2],> 100 µg
same,"LC50, TBW, E (TBW-E)",[3],> 0.1%
CC(C)C(=Nc1ccc(Cl)c(Cl)c1)OCc1cccc(Oc2cccc(F)c2)c1 [Compound 40],"LC50, CL",[1],0.0025%
same,"LC50, HF",[2],36 µg
same,"LC50, TBW, E (TBW-E)",[3],0.08%
CC(C)(C)C(=Nc1ccc(F)cc1)OCc1cccc(Oc2ccccc2)c1 [Compound 48],"LC50, CL",[1],0.03%
same,"LC50, HF",[2],> 100 µg
same,"LC50, TBW, E (TBW-E)",[3],> 0.05%
CC(C)C(=Nc1cc(F)ccc1F)OCc1cccc(Oc2ccccc2)c1 [Compound 56],"LC50, CL",[1],0.01%
same,"LC50, HF",[2],91 µg
same,"LC50, TBW, E (TBW-E)",[3],> 0.05%
CC(C)C(=Nc1cc(F)c(F)cc1F)OCc1cccc(Oc2ccccc2)c1 [Compound 58],"LC50, CL",[1],0.002%
same,"LC50, HF",[2],16 µg
same,"LC50, TBW, E (TBW-E)",[3],0.06%
CCC(=Nc1ccc(F)cc1F)OCc1cccc(Oc2ccccc2)c1 [Compound 59],"LC50, CL",[1],0.02%
same,"LC50, HF",[2],25 µg
same,"LC50, TBW, E (TBW-E)",[3],> 0.1%
COc1cc(N=C(OCc2cccc(Oc3ccccc3)c2)C(C)C)cc(C(F)(F)F)c1 [Compound 76],"LC50, CL",[1],0.002%
same,"LC50, HF",[2],20 µg
same,"LC50, TBW, E (TBW-E)",[3],0.05%
CC(C)C(=Nc1cc(C(F)(F)F)cc(C(F)(F)F)c1)OCc1cccc(Oc2ccccc2)c1 [Compound 78],"LC50, CL",[1],0.0025%
same,"LC50, HF",[2],> 100 µg
same,"LC50, TBW, E (TBW-E)",[3],> 0.1%
CC(C)C(=Nc1ccc(Br)cc1F)OCc1cccc(Oc2ccccc2)c1 [Compound 79],"LC50, CL",[1],0.003%
same,"LC50, HF",[2],6 µg
same,"LC50, TBW, E (TBW-E)",[3],0.05%
CC(C)C(=Nc1cc(C(F)(F)F)ccc1F)OCc1cccc(Oc2ccccc2)c1 [Compound 84],"LC50, CL",[1],0.006%
same,"LC50, HF",[2],93 µg
same,"LC50, TBW, E (TBW-E)",[3],0.1%
FC(F)(F)c1cccc(N=C(OCc2cccc(Oc3ccccc3)c2)C2CC2)c1 [Compound 86],"LC50, CL",[1],0.013%
same,"LC50, HF",[2],65 µg
same,"LC50, TBW, E (TBW-E)",[3],> 0.1%
Cc1cc(N=C(OCc2cccc(Oc3ccccc3)c2)C(C)C)ccc1F [Compound 87],"LC50, CL",[1],0.004%
same,"LC50, HF",[2],5 µg
same,"LC50, TBW, E (TBW-E)",[3],0.03%
Cc1ccc(Cl)c(N=C(OCc2cccc(Oc3ccccc3)c2)C(C)C)c1 [Compound 93],"LC50, CL",[1],0.005%
same,"LC50, HF",[2],64 µg
same,"LC50, TBW, E (TBW-E)",[3],> 0.1%
Cc1ccc(N=C(OCc2cccc(Oc3ccccc3)c2)C(C)C)c(Cl)c1 [Compound 94],"LC50, CL",[1],0.0045%
same,"LC50, HF",[2],44 µg
same,"LC50, TBW, E (TBW-E)",[3],0.075%
COc1cc(N=C(OCc2cccc(Oc3ccccc3)c2)C(C)C)c(OC)cc1Cl [Compound 99],"LC50, CL",[1],0.016%
same,"LC50, HF",[2],> 100 µg
same,"LC50, TBW, E (TBW-E)",[3],> 0.1%
COc1ccc(OC)c(N=C(OCc2cccc(Oc3ccccc3)c2)C(C)C)c1Cl [Compound 100],"LC50, CL",[1],0.05%
same,"LC50, HF",[2],100 µg
same,"LC50, TBW, E (TBW-E)",[3],> 0.1%
CCSc1ccc(N=C(OCc2cccc(Oc3ccccc3)c2)C(C)C)cc1Cl [Compound 103],"LC50, CL",[1],0.015%
same,"LC50, HF",[2],> 100 µg
same,"LC50, TBW, E (TBW-E)",[3],> 0.1%
CCOC(=O)c1ccc(N=C(OCc2cccc(Oc3ccccc3)c2)C(C)C)cc1Cl [Compound 104],"LC50, CL",[1],0.004%
same,"LC50, HF",[2],> 100 µg
same,"LC50, TBW, E (TBW-E)",[3],> 0.1%
CC(C)(C)C(=Nc1ccc(Cl)c([N+](=O)[O-])c1)OCc1cccc(Oc2ccccc2)c1 [Compound 105],"LC50, CL",[1],0.018%
same,"LC50, HF",[2],> 100 µg
same,"LC50, TBW, E (TBW-E)",[3],> 0.1%
CC(C)(C)C(=Nc1ccc(Br)c(Cl)c1)OCc1cccc(Oc2ccccc2)c1 [Compound 106],"LC50, CL",[1],0.014%
same,"LC50, HF",[2],> 100 µg
same,"LC50, TBW, E (TBW-E)",[3],> 0.1%
Cc1ccc(N=C(OCc2cccc(Oc3ccccc3)c2)C(C)(C)C)cc1Cl [Compound 107],"LC50, CL",[1],0.007%
same,"LC50, HF",[2],> 100 µg
same,"LC50, TBW, E (TBW-E)",[3],> 0.1%
Cc1cc(Cl)ccc1N=C(OCc1cccc(Oc2ccccc2)c1)C(C)(C)C [Compound 109],"LC50, CL",[1],0.002%
same,"LC50, HF",[2],> 100 µg
same,"LC50, TBW, E (TBW-E)",[3],> 0.1%
COc1ccc(N=C(OCc2cccc(Oc3ccc(F)cc3)c2)C(C)C)cc1Cl [Compound 110],"LC50, CL",[1],0.007%
same,"LC50, HF",[2],26 µg
same,"LC50, TBW, E (TBW-E)",[3],0.04%
CC(C)(Cl)C(=Nc1ccc(Cl)c2ccccc12)OCc1cccc(Oc2ccccc2)c1 [Compound 111],"LC50, CL",[1],0.1%
same,"LC50, HF",[2],> 100 µg
same,"LC50, TBW, E (TBW-E)",[3],> 0.1%
CC(C)C(=Nc1cccc(Oc2ccccn2)c1)OCc1cccc(Oc2ccccc2)c1 [Compound 114],"LC50, CL",[1],< 0.1%
same,"LC50, HF",[2],92 µg
CCC(=Nc1ccc(F)c(Cl)c1)OCc1cccc(Oc2ccc(F)cc2)c1 [Compound 115],"LC50, CL",[1],0.0012%
same,"LC50, HF",[2],10 µg
same,"LC50, TBW, E (TBW-E)",[3],0.075%
CC(Br)C(=Nc1ccc(F)c(Cl)c1)OCc1cccc(Oc2ccccc2)c1 (stereo not shown) [Compound 118],"LC50, CL",[1],0.0013%
same,"LC50, HF",[2],18 µg
same,"LC50, TBW, E (TBW-E)",[3],> 0.1%
CCCCC(=Nc1ccc(F)c(Cl)c1)OCc1cccc(Oc2ccccc2)c1 [Compound 121],"LC50, CL",[1],0.1%
same,"LC50, HF",[2],> 100 µg
same,"LC50, TBW, E (TBW-E)",[3],> 0.1%
CCCC(=Nc1ccc(F)c(Cl)c1)OCc1cccc(Oc2ccccc2)c1 [Compound 123],"LC50, CL",[1],0.012%
same,"LC50, HF",[2],> 100 µg
same,"LC50, TBW, E (TBW-E)",[3],> 0.1%
CC(C)C(=Nc1cccc(C#N)c1)OCc1cccc(Oc2ccccc2)c1 [Compound 126],"LC50, CL",[1],0.08%
same,"LC50, HF",[2],> 100 µg
same,"LC50, TBW, E (TBW-E)",[3],> 0.1%
Cc1cc(N=C(OCc2cccc(Oc3ccccc3)c2)C(C)C)ccc1Br [Compound 127],"LC50, CL",[1],0.01%
same,"LC50, HF",[2],58 µg
same,"LC50, TBW, E (TBW-E)",[3],0.04%
CC(C)C(=Nc1c(Br)cc(F)cc1Br)OCc1cccc(Oc2ccccc2)c1 [Compound 130],"LC50, CL",[1],0.005%
same,"LC50, HF",[2],> 100 µg
same,"LC50, TBW, E (TBW-E)",[3],> 0.1%
FC(F)(F)c1ccc(Oc2ccc(COC(=Nc3ccc(Cl)cc3)C(Cl)Cl)cc2)nc1 [Compound 453],"LC50, CL",[1],0.1%
same,"LC50, HF",[2],> 100 µg
CC(C)C(=Nc1ccc(F)c(Cl)c1)OC(F)c1cccc(Oc2ccc(F)cc2)c1 (stereo not shown) [Compound 502],"LC50, HF",[2],80 µg
CC(C)C(=Nc1ccc(OC(F)(F)F)cc1)OCc1cccc(Cc2ccccc2)c1 [Compound 542],"LC50, CL",[1],> 0.01%
same,"LC50, HF",[2],> 100 µg
